The source of these data is patent US20230009626A1 (ICHNOS SCIENCES S.A., priority 2018, published 2023).

The target of this test is HPK1 (MAP4K1) (Homo sapiens, UniProt Q92918). Put plainly: FRET Assay for HPK1 (MAP4K1): one step binding assay, displacement of labeled tracer. To be noted: for inhibition at 1 µM: 1 μM compound; for inhibition at 1 µM / inhibition at 10 µM: FRET ratio 665/620, percent of control; for inhibition at 10 µM: 10 μM compound; for IC50: dose response curve, nonlinear regression. From the text: FRET Assay for HPK1 (MAP4K1):
This is a one step binding assay based on the binding and displacement of the labeled tracer, where compound addition is followed by addition of the anti-GST tagged europium (Eu) as the donor and Alexa Fluor-labeled tracer as the acceptor. Simultaneous binding of both the tracer and GST-antibody to the kinase domain of HPK1 results in a high degree of FRET (fluorescence resonance energy transfer) from the anti-GST tagged europium (Eu) fluorophore to the Alexa Fluor® 647 fluorophore on the kinase tracer and this signal is reduced in presence of the inhibitor that can be measured.
Test compounds or reference compounds such as Sunitinib (Sigma) were dissolved in dimethylsulfoxide (DMSO) to prepare 10.0 mM stock solutions and diluted to the desired concentration. The final concentration of DMSO in the reaction was 3% (v/v). The assay mixture was prepared by mixing 4 nM of the Eu-Anti-GST Antibody and 10 nM MAP4K-1 enzyme in the Kinase buffer containing 50mM HEPES (pH 7.5), 10 mM MgCl2, 1 mM EGTA, 0.01% Brij-35 with or without the desired concentration of the compound. The reaction was incubated on ice for 15 mins. The pre-incubation step was followed by addition of the 20 nM Kinase Tracer 222 into the reaction mixture. After shaking for 5 min the reaction was further incubated for 1 hour at room temperature and this was kept at 4° C. and read on ARTEMIS reader as per the kit instructions (Thermo). […] The activity was calculated as percent of control reaction. IC50 values were calculated from dose response curve by nonlinear regression analysis using GraphPad Prism software.
Percentage inhibition at concentrations of 1.0 μM and 10.0 μM are given in the table along with IC50 (nM) details for selected examples.

SMILES strings stand for the structures. Some results are limits rather than exact numbers.

Sequence of HPK1 (MAP4K1) (Q92918 whole entry, the tested form may be a part): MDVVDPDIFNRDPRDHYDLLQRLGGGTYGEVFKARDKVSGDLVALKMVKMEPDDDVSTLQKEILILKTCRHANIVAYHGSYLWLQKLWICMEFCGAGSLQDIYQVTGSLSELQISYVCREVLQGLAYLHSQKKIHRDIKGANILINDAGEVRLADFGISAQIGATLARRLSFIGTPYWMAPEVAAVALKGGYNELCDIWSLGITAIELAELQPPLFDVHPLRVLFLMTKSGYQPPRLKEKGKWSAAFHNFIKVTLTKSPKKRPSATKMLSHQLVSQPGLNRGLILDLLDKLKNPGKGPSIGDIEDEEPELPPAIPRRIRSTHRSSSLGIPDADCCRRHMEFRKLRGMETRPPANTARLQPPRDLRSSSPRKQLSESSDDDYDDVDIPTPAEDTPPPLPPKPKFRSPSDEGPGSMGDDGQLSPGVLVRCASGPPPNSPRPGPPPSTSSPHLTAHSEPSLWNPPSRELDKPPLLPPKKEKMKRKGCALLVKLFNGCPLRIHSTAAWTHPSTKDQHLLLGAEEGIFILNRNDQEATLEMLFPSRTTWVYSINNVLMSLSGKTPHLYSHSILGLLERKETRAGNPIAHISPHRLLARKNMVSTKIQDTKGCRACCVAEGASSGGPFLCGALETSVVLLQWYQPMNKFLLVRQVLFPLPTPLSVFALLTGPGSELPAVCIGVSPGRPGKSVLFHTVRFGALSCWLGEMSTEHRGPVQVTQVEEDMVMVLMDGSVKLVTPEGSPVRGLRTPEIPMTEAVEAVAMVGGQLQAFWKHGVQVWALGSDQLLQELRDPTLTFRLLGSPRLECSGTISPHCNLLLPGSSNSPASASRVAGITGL

As a reminder, the inhibition is how much of the control response was suppressed. The term IC50 denotes the concentration that inhibits the measured activity by half. A low value points to greater potency. In the case of `C/C(Nc1ccc(OC2CCN(C(=O)C3CC3)CC2)nc1)=C1/C(=O)Nc2cnc(-c3cnccc3C)cc21` [Example 177, (Z)-3-(1-((6-((1-(Cyclopropanecarbonyl)piperidin-4-yl)oxy)pyridin-3-yl)amino)ethylidene)-5-(4-methylpyridin-3-yl)-1H-pyrrolo[2,3-c]pyridin-2(3H)-one], the inhibition at 1 µM was determined as 69.4%, the inhibition at 10 µM came out at 66.6% and the IC50 is below 50 nM.

Regarding `COc1cccc(F)c1-c1cc2c(cn1)NC(=O)/C2=C(/C)Nc1ccn(C(C)(C)C#N)n1` [Example 93, (Z)-2-(3-((1-(5-(2-Fluoro-6-methoxyphenyl)-2-oxo-1H-pyrrolo[2,3-c]pyridin-3(2H)-ylidene)ethyl)amino)-1H-pyrazol-1-yl)-2-methylpropanenitrile], the inhibition at 1 µM came out at 73.8%, the inhibition at 10 µM came to 76.4% and the IC50 is below 50 nM.

`COc1cccc(F)c1-c1ccc2c(c1)/C(=C(\C)Nc1ccccc1)C(=O)N2` [Example 3, (Z)-5-(2-Fluoro-6-methoxyphenyl)-3-(1-(phenylamino)ethylidene)indolin-2-one]: the inhibition at 1 µM came to 62.5% and the IC50 lay within 100 to 500 nM.

Turning to `C/C(Nc1cnn(C)c1)=C1/C(=O)Nc2cccc(-c3cnccc3C)c21` [Example 159, (Z)-3-(1-((1-Methyl-1H-pyrazol-4-yl)amino)ethylidene)-4-(4-methylpyridin-3-yl)indolin-2-one], the inhibition at 1 µM was determined as 62.8%, the inhibition at 10 µM worked out at 87.4% and the IC50 is above 500 nM.

For the compound `C/C(Nc1cc(C)n(C[C@@H](C)O)n1)=C1/C(=O)Nc2cnc(-c3cnccc3C)cc21` [Example 188, (R,Z)-3-(1-((1-(2-Hydroxypropyl)-5-methyl 1H-pyrazol-3-yl)amino)ethylidene)-5-(4-methylpyridin-3-yl)-1H-pyrrolo[2,3-c]pyridin-2(3H)-one], the inhibition at 1 µM came out at 71%, the inhibition at 10 µM was 76% and the IC50 was below 50 nM.

`CNC(=O)c1cc(N/C(C)=C2\C(=O)Nc3cnc(-c4cnccc4C)cc32)nn1C` [Example 75, (Z)-N,1-Dimethyl-3-((1-(5-(4-methylpyridin-3-yl)-2-oxo-1H-pyrrolo[2,3-c]pyridin-3(2H)-ylidene)ethyl)amino)-1H-pyrazole-5-carboxamide]: the inhibition at 1 µM came to 71%, the inhibition at 10 µM is 74% and the half-maximal inhibitory concentration (IC50) was below 50 nM.

In the case of `C/C(Nc1cc2n(n1)CCOC2)=C1/C(=O)Nc2cnc(-c3cc(F)ccc3C)cc21` [Example 218, (Z)-3-(1-((6,7-Dihydro-4H-pyrazolo[5,1-c][1,4]oxazin-2-yl)amino)ethylidene)-5-(5-fluoro-2-methylphenyl)-1H-pyrrolo[2,3-c]pyridin-2(3H)-one], the inhibition at 1 µM turned out to be 77.7% and the IC50 was below 50 nM.

As for `C/C(Nc1cnn(C)c1)=C1/C(=O)Nc2cnc(-c3cccnc3C)cc21` [Example 158, (Z)-3-(1-((1-Methyl-1H-pyrazol-4-yl)amino)ethylidene)-5-(2-methylpyridin-3-yl)-1H-pyrrolo[2,3-c]pyridin-2(3H)-one], the inhibition at 1 µM was 74.7%, the inhibition at 10 µM is 91.1% and the IC50 is 100 to 500 nM.

With `COc1cccc(F)c1-c1cc2c(cn1)NC(=O)/C2=C(/C)Nc1cnn(C2CC2)c1` [Example 30, (Z)-3-(1-((1-Cyclopropyl-1H-pyrazol-4-yl)amino)ethylidene)-5-(2-fluoro-6-methoxyphenyl)-1H-pyrrolo[2,3-c]pyridin-2(3H)-one], the inhibition at 1 µM came out at 89.9%, the inhibition at 10 µM turned out to be 92.8% and the IC50 is below 50 nM.

For the compound `C/C(Nc1ncn(C)n1)=C1/C(=O)Nc2cnc(-c3cnccc3C)cc21` [Example 163, (Z)-3-(1-((1-Methyl-1H-1,2,4-triazol-3-yl)amino)ethylidene)-5-(4-methylpyridin-3-yl)-1H-pyrrolo[2,3-c]pyridin-2(3H)-one], the inhibition at 1 µM turned out to be 77.3%, the inhibition at 10 µM stood at 81.5% and the IC50 was below 50 nM.

For the compound `C/C(Nc1ccn(CCN2CCOCC2)n1)=C1/C(=O)Nc2cnc(-c3cnccc3C)cc21` [Example 101, (Z)-5-(4-Methylpyridin-3-yl)-3-(1-((1-(2-morpholinoethyl)-1H-pyrazol-3-yl)amino)ethylidene)-1H-pyrrolo[2,3-c]pyridin-2(3H)-one], the inhibition at 1 µM turned out to be 68%, the inhibition at 10 µM worked out at 81.8% and the IC50 was below 50 nM.

Consider `C/C(Nc1cnn(CC[C@@H](C)O)c1)=C1/C(=O)Nc2cnc(-c3cnccc3C)cc21` [Example 165, (R,Z)-3-(1-((1-(3-Hydroxybutyl)-1H-pyrazol-4-yl)amino)ethylidene)-5-(4-methylpyridin-3-yl)-1H-pyrrolo[2,3-c]pyridin-2(3H)-one], for which the inhibition at 1 µM amounted to 79.3%, the inhibition at 10 µM is 71.8% and the IC50 is below 50 nM.

With `C/C(Nc1cnn(C)c1)=C1/C(=O)Nc2cnc(-c3c(C)noc3C)cc21` [Example 55, (Z)-5-(3,5dimethylisoxazol-4-yl)-3-(1-((1-methyl-1H-pyrazol-4-yl)amino)ethylidene)-1H-pyrrolo[2,3-c]pyridin-2(3H)-one], the inhibition at 1 µM is 78%, the inhibition at 10 µM is 90% and the IC50 lay within 50 to 100 nM.

`COc1cccc(F)c1-c1cc2c(cc1C#N)NC(=O)/C2=C(/C)Nc1cnn(C)c1` [Example 71, (Z)-5-(2-Fluoro-6-methoxyphenyl)-3-(1-((1-methyl-1H-pyrazol-4-yl)amino)ethylidene)-2-oxoindoline-6-carbonitrile]: the inhibition at 1 µM is 71.7%, the inhibition at 10 µM stood at 72.7% and the IC50 is below 50 nM.

Consider `C/C(Nc1cnn(C)c1)=C1/C(=O)Nc2cnc(-c3cnc4c(c3C)NCCO4)cc21` [Example 45, (Z)-3-(1-((1-Methyl-1H-pyrazol-4-yl)amino)ethylidene)-5-(8-methyl-2,3-dihydro-1H-pyrido[2,3-b][1,4]oxazin-7-yl)-1H-pyrrolo[2,3-c]pyridin-2(3H)-one], for which the inhibition at 1 µM is 72.4%, the inhibition at 10 µM was determined as 86% and the IC50 lay within 100 to 500 nM.

`CC(=O)N1CCC(n2ccc(N/C(C)=C3\C(=O)Nc4cnc(-c5cnccc5C)cc43)n2)CC1` [Example 130, (Z)-3-(1-((1-(1-Acetylpiperidin-4-yl)-1H-pyrazol-3-yl)amino)ethylidene)-5-(4-methylpyridin-3-yl)-1H-pyrrolo[2,3-c]pyridin-2(3H)-one]: the inhibition at 1 µM amounted to 79.4%, the inhibition at 10 µM was 84.8% and the IC50 was below 50 nM.

Regarding `CCn1ccc(N/C(C)=C2\C(=O)Nc3cnc(-c4cnccc4C)cc32)n1` [Example 73, (Z)-3-(1-((1-Ethyl-1H-pyrazol-3-yl)amino)ethylidene)-5-(4-methylpyridin-3-yl)-1H-pyrrolo[2,3-c]pyridin-2(3H)-one], the inhibition at 1 µM amounted to 69.6%, the inhibition at 10 µM was 63.9% and the IC50 is below 50 nM.

Take `C/C(Nc1cc2n(n1)CC(=O)N(C(C)C)C2)=C1/C(=O)Nc2cnc(-c3c(C)cccc3F)cc21` [Example 206, (Z)-2-((1-(5-(2-Fluoro-6-methylphenyl)-2-oxo-1H-pyrrolo[2,3-c]pyridin-3(2H)-ylidene)ethyl)amino)-5-isopropyl-4,5-dihydropyrazolo[1,5-a]pyrazin-6(7H)-one]: the inhibition at 1 µM was 72.4%, the inhibition at 10 µM worked out at 84.9% and the IC50 is below 50 nM.

In the case of `CC(=O)N1CC(n2ccc(N/C(C)=C3\C(=O)Nc4cnc(-c5cnccc5C)cc43)n2)C1` [Example 120, (Z)-3-(1-((1-(1-Acetylazetidin-3-yl)-1H-pyrazol-3-yl)amino)ethylidene)-5-(4-methylpyridin-3-yl)-1H-pyrrolo[2,3-c]pyridin-2(3H)-one], the inhibition at 1 µM came out at 2.17% and the inhibition at 10 µM was 49%.

For the compound `C/C(Nc1ccn(CC[C@H](C)O)n1)=C1/C(=O)Nc2cnc(-c3cnccc3C)cc21` [Example 196, (S,Z)-3-(1-((1-(3-hydroxybutyl)-1H-pyrazol-3-yl)amino)ethylidene)-5-(4-methylpyridin-3-yl)-1H-pyrrolo[2,3-c]pyridin-2(3H)-one], the inhibition at 1 µM came out at 65%, the inhibition at 10 µM came out at 66.3% and the IC50 was below 50 nM.

For `C/C(Nc1cnn(C(C)(C)C#N)c1)=C1/C(=O)Nc2ccc(-c3cnccc3C)nc21` [Example 105, (Z)-2-Methyl-2-(4-((1-(5-(4-methylpyridin-3-yl)-2-oxo-1H-pyrrolo[3,2-b]pyridin-3(2H)-ylidene)ethyl)amino)-1H-pyrazol-1-yl)propanenitrile], the inhibition at 1 µM was found to be 79.8%, the inhibition at 10 µM amounted to 84.4% and the concentration for half-maximal inhibition (IC50) is below 50 nM.
